Laboratory results taken from patent publication US7608642B2, “Wound and skin care compositions” (Kimberly-Clark Worldwide, Inc., priority 2002, dated 2009).
Values joined by “and” are separate entries in the source; they are usually repeats but may differ in a detail not shown here. Identical values can stand only once. “Also recorded” adds a separate entry of the source.

Experiments:
[1] = test system: human skin keratinocyte cell line (normal human epidermal keratinocytes, neonatal); assay: Proliferation of human skin keratinocytes (Cell Titer 96, absorbance 490 nm); assay type: cell-based; conditions: for Mean optical density (OD) at 490 nm, cell proliferation / Median optical density (OD) at 490 nm, cell proliferation: 48 hours, KBM, n=5
Protocol: In addition, 100 μl of vehicle KBM was added to 5 wells as control. […] The spectrophotometric absorbance of each well was read at 490 nm.

[2] = test system: collagen production in the human skin fibroblast cell line; assay: Collagen production in human skin fibroblasts (Takara EIA kit MK101, absorbance 450 nm); assay type: cell-based; conditions: for Mean optical density (OD) at 450 nm, collagen production / Median optical density (OD) at 450 nm, collagen production: 48 hours, n=2
Protocol: The cells were first grown in a 96-well assay system using Dulbecco's Modified Eagle's Medium (DMEM) with 10% fetal bovine serum (FBS) both purchased from Sigma Chemical Co, St. Louis, Mo. Serum-free DMEM was used as a control.
The assay was done by using the recommended 20 ul of the supernatant from each well of the 96-well plate. Standard buffer and stop solutions were freshly prepared before running the assay. 100 ul of antibody-POD conjugate solution (supplied with the kit) was added into the wells using pre antibody coated 96 well plate (supplied with the kit). 20 ul of standard and test solutions (from the other 96-well plate containing fibroblasts) were added to appropriate wells. Plate was mixed gently, sealed and incubated for three hrs. at 37° C.
After incubation each well was washed carefully four times with PBS buffer (400 ul). All the wells were completely emptied at the end of washing from any liquid.
100 ul of substrate solution (hydrogen peroxide and tetramethylbenzidine in a buffer solution, supplied with the kit) was added to each well and the plate was incubated for 15 minutes. At this point 100 ul of stop solution (freshly prepared 1N H2SO4) was added to each well in the same order as substrate. The plate was gently mixed and absorbance was read at 450 nm.

[3] = test system: fibronectin production in the human skin fibroblast cell line; assay: Fibronectin production in human skin fibroblasts (Takara EIA kit MK115, absorbance 450 nm); assay type: cell-based; conditions: for Mean optical density (OD) at 450 nm, fibronectin production / Median optical density (OD) at 450 nm, fibronectin production: 48 hours, n=2
Protocol: The cells were first grown in a 96-well assay system using Dulbecco's Modified Eagle's Medium (DMEM) with 10% fetal bovine serum (FBS) both purchased from Sigma Chemical Co, St. Louis, Mo. Serum-free DMEM was used as a control. […] The fibronectin assay was performed using the recommended 100 μl of the supernatant from each well of the 96-well plate. Standard buffer and stop solutions were freshly prepared before running the assay. A pre-antibody-coated 96 well plate (provided with the kit) was used to transfer the test samples and control. The plate was mixed, sealed and incubated for 1 hour at 37° C. All the wells were washed after removing sample solutions, 3 times (300 μl) with washing buffer. 100 ul of antibody-POD conjugate solution was added into the wells. Plate was mixed, sealed and incubated for one hour at 37° C. Solutions were removed and the wells were washed 3 times with washing buffer. All the wells were completely emptied at the end of washing from any liquid. 100 μl of substrate solution (hydrogen peroxide and tetramethylbenzidine in a buffered solution) was added to each well and the plate was incubated at room temperature for 15 minutes. 100 μl of stop solution (freshly prepared 1N H2SO4) was added to each well in the same order as substrate. The plate was gently mixed and absorbance was read at 450 nm.

Swiss Albino mice = assay: Wound healing, full thickness skin wounds (3 mm biopsy punch) in mice; assay type: in vivo, mouse
Protocol: Twenty, 12-week old Swiss Albino mice were anesthetized with a ketamine/acepromazine cocktail and subjected to four full thickness skin wounds on the dorsolateral surface. […] Jasmonic acid (100 mg) was dissolved in 2 ml ethanol. 200 μl of the resulting solution was then added to 4.8 ml of WFI. Four wounds were made on either side of the spinal column using a 3 mm biopsy punch. To make the wounds, the skin was first tented and the punch was driven through the tented skin to generate both wounds with a single stroke. The upper left quadrant wound site of the animal was assigned to receive the control solution (WFI). […] The wound sites were dosed 5 times (twice on Day 0, Day 1, and once on Day 2). All wounds were treated with 5 μl of test or control solutions. Wounds were allowed to absorb the solutions for 5 minutes before returning the animals to their cages for recovery. All the animals were housed singly. The in-life phase for the animals is 5 days. Each day the wounds on the mice were traced onto glass slides and measured using calipers accurate to the nearest 0.1 mm. Photographs of the wounds were also taken daily for the duration of the study to measure wound size. Means and the standard deviations of the wound diameters for each day were calculated for the healing profile. The effects of the test substances on wound healing were compared to the effects of the control (WFI).

[4] = test system: healthy female volunteers; assay: Dansyl chloride cell renewal study (stratum corneum renewal time); assay type: in vivo, human
Source text: The stratum corneum renewal time is the time taken for the whole thickness of the stratum corneum to be exfoliated and replaced by new cells from the dividing epidermis. This renewal time is a fundamental indicator of skin health. […] See Jansen L H, Hojyo-Tomoko M T, Kligman A M., Improved fluorescence staining technique for estimating turnover of the human stratum corneum, Br J Dermatol., 90, 9-12, 1974; Ridge B D, Batt M D, Palmer H E, Jarrett A, The dansyl chloride technique for stratum corneum renewal as an indicator of changes in epidermal mitotic activity following topical treatment., Br J Dermatol., 118, 167-74, 1988; Grove G L, Kligman A M, Age-associated changes in human epidermal cell renewal., J Geron., 38, 137-142, 1983. The time required for the dye to disappear is therefore an indication of the turnover time of the stratum corneum. Therefore, any differences in the time required for the dye to disappear from treated and non-treated sites can be considered to be an expression of that product's ability to enhance epidermal renewal.
A dansyl chloride cell renewal study was conducted in healthy female volunteers ranging from 43-64 years of age. The study consisted of a two-week treatment period during which time the products were applied topically twice daily, including on weekend days, to the test sites. The area of application was designated, approximately 5 cm×10 cm on the upper inner arm. The other arm served as a control with no product application. […] Eight females received jasmonic acid and seven females received gibberellic acid.
The time required for a marker dye to disappear was used as the measure of cell renewal rate.

[5] = 1×10^−4 M to 1×10^−6 M vs control

SMILES: CC/C=C\C[C@H]1C(=O)CC[C@@H]1CC(=O)O [jasmonic acid]
- Cell proliferating activity on human keratinocytes (in words) [1, 5]: strong cell proliferating activity especially at the lower concentrations; also recorded: all concentrations of jasmonic acid had an effect on cell growth
- Mean optical density (OD) at 490 nm, cell proliferation ([1]; 1×10^−4 M): 0.5732
- Median optical density (OD) at 490 nm, cell proliferation ([1]; 1×10^−4 M): 0.5860
- Mean optical density (OD) at 490 nm, cell proliferation ([1]; 1×10^−5 M): 0.7628
- Median optical density (OD) at 490 nm, cell proliferation ([1]; 1×10^−5 M): 0.7750
- Mean optical density (OD) at 490 nm, cell proliferation ([1]; 1×10^−6 M): 0.7734
- Median optical density (OD) at 490 nm, cell proliferation ([1]; 1×10^−6 M): 0.7970
- Stimulation of collagen production (in words) [2, 5]: strongly stimulated collagen production at higher concentrations; also recorded: Higher concentrations of jasmonic acid and medium concentrations of zeatin also stimulated collagen production
- Mean optical density (OD) at 450 nm, collagen production ([2]; 1×10^−4 M): 0.8040
- Median optical density (OD) at 450 nm, collagen production ([2]; 1×10^−4 M): 0.8040
- Mean optical density (OD) at 450 nm, collagen production ([2]; 1×10^−5 M): 0.7895
- Median optical density (OD) at 450 nm, collagen production ([2]; 1×10^−5 M): 0.7895
- Mean optical density (OD) at 450 nm, collagen production ([2]; 1×10^−6 M): 0.7475
- Median optical density (OD) at 450 nm, collagen production ([2]; 1×10^−6 M): 0.7475
- Stimulation of fibronectin production (in words) [3, 5]: effective for stimulating fibronectin production in human fibroblasts; also recorded: all compounds stimulated fibronectin production
- Mean optical density (OD) at 450 nm, fibronectin production ([3]; 1×10^−4 M): 0.2060
- Median optical density (OD) at 450 nm, fibronectin production ([3]; 1×10^−4 M): 0.2060
- Mean optical density (OD) at 450 nm, fibronectin production ([3]; 1×10^−5 M): 0.2025
- Median optical density (OD) at 450 nm, fibronectin production ([3]; 1×10^−5 M): 0.2025
- Mean optical density (OD) at 450 nm, fibronectin production ([3]; 1×10^−6 M): 0.1955
- Median optical density (OD) at 450 nm, fibronectin production ([3]; 1×10^−6 M): 0.1955
- Time control-treated wounds required to close to the same extent achieved in jasmonic acid-treated wounds on day 1 (Swiss Albino mice; topical 0.2% solution vs control (WFI)): over 2.5 days
- Effect on wound closure / wound healing (in words) (Swiss Albino mice; topical 5 μl of 0.2% solution, 5 doses Day 0-2, vs control (WFI)): significantly accelerated the rate of wound healing; also recorded: experienced slower wound closure than mice receiving a 0.2% solution of jasmonic acid
- Time for cell renewal, treated skin (RENEWAL) ([4]; 0.25% in hyaluronic acid (0.5% aqueous solution), topical twice daily for two weeks, upper inner arm, individual patients, listed as JA): 12 Days (2×) and 16 Days and 15 Days (2×) and 17 Days and 14 Days and 11 Days
- Skin irritation or redness ([4]; in vivo): no visible sign of any skin irritation or redness
